# Assay results as given in patent publication US10040791B2, “Isoxazole derivative as mutant isocitrate dehydrogenase 1 inhibitor” (Daiichi Sankyo Company, Limited, priority 2014, dated 2018).
# Read-outs that look alike come from different tables or passages of the source.
# Columns and labels:
# IDH1R132C = IDH1R132C (Homo sapiens (Human), UniProt O75874, R132C); test: Inhibitory activity against IDH1R132C enzyme (NADPH detection, WST-8); type: biochemical; details: 10 nM, residual NADPH detected with WST-8, read-out: Test Example 1 IDH1 R132C IC50
# IDH1R132C, sequence (O75874 whole entry R132C): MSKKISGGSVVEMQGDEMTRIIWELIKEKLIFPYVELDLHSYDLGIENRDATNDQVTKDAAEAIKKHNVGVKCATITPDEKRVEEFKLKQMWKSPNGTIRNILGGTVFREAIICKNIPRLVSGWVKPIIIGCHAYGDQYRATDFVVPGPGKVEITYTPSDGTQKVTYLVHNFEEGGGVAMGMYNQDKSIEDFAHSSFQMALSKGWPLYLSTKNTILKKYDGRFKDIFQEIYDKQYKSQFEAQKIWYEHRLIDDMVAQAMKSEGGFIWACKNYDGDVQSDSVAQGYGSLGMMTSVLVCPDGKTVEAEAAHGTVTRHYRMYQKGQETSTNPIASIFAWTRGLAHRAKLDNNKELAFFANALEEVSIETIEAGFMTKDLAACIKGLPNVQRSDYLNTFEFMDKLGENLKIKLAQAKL
# Experimental: After transformation of Rosetta 2 (DE3) E. coli, the expression of the protein was induced with IPTG.
# While NADPH-derived fluorescence was occasionally monitored, the reaction was terminated by the addition of 5 μL of 0.5 M EDTA before consumption of NADPH. 5 μL of WST-8 reagent (Dojindo Laboratories, #CK04) was further added and mixed therewith. 15 minutes later, the absorbance at 450 nm was measured using a plate reader (PerkinElmer, Inc., EnVision). The observed absorbance value reflects the amount of residual NADPH. From the absorbance data, the enzyme inhibitory activity of each compound at each concentration was calculated and analyzed using medical statistical analysis software GraphPad Prism to calculate an IC50 value.
# [1] = system: HT-1080 cells expressing IDH1R132C; test: 2-HG production inhibitory activity using HT1080 cell; type: cell-based, human; details: Homo sapiens
# Experimental: Then, 100 μL of growth medium B was added to each well, further 25 μL of a solution of each compound diluted to a predetermined concentration with growth medium B was added to each well, and the cells were incubated at 37° C. for 2 days under 5% CO2. […] Then, 150 μL of ultrapure water was further added to each well, and the mixture was stirred by pipetting and stored at −20° C.
# The preserved solutions were thawed at room temperature.
# [2] = HT-1080, 2-HG production, HT1080 cells, read-out: Test Example 3 IC50
Compound,IC50 (IDH1R132C),"IC50 [1, 2]","IC50 ([1]; HT-1080, read-out: Test Example 3 IC50 (nM))"
"CC1(c2onc(-c3c(Cl)cc(Cl)cc3Cl)c2C(=O)n2ccc3c(/C=C/C(=O)O)ccnc32)COC1 [Example 9, (2E)-3-(1-{[5-(3-Methyloxetan-3-yl)-3-(2,4,6-trichlorophenyl)-1,2-oxazol-4-yl]carbonyl}-1H-pyrrolo[2,3-b]pyridin-4-yl]prop-2-enoic acid]",107 nM,1270 nM,–
"CC(C)c1onc(-c2c(Cl)ccc(F)c2Cl)c1C(=O)n1ccc2c(/C=C/C(=O)O)cccc21 [Example 28, (2E)-3-(1-{[3-(2,6-Dichloro-3-fluorophenyl)-5-(propan-2-yl)-1,2-oxazol-4-yl]carbonyl}-1H-indol-4-yl)prop-2-enoic acid]",90 nM,401 nM,–
"CC(C)c1onc(-c2c(Cl)cccc2Cl)c1C(=O)n1ccc2c(/C=C/C(=O)O)cccc21 [Example 23, (2E)-3-(1-{[3-(2,6-Dichlorophenyl)-5-(propan-2-yl)-1,2-oxazol-4-yl]carbonyl}-1H-indol-4-yl)prop-2-enoic acid]",75 nM,709 nM,–
"C=Cc1ccc(-c2onc(-c3c(Cl)cc(Cl)cc3Cl)c2C(=O)n2ccc3c(/C=C/C(=O)O)cccc32)cn1 [Example 73, (2E)-3-(1-{[5-(6-Ethenylpyridin-3-yl)-3-(2,4,6-trichlorophenyl)-1,2-oxazol-4-yl]carbonyl}-1H-indol-4-yl)prop-2-enoic acid]",208 nM,–,7 nM
"COC1(c2onc(-c3c(F)cc(Cl)cc3Cl)c2C(=O)n2cc(C)c3c(/C=C/C(=O)O)cccc32)CCC1 [Example 14, (2E)-3-(1-{[3-(2,4-Dichloro-6-fluorophenyl)-5-(1-methoxycyclobutyl)-1,2-oxazol-4-yl]carbonyl}-3-methyl-1H-indol-4-yl]prop-2-enoic acid]",110 nM,32 nM,–
"Cc1cn(C(=O)c2c(-c3c(Cl)cc(Cl)cc3Cl)noc2C2(N)CCC2)c2cccc(/C=C/C(=O)O)c12 [Example 90, (2E)-3-(1-{[5-(1-Aminocyclobutyl)-3-(2,4,6-trichlorophenyl)-1,2-oxazol-4-yl]carbonyl}-3-methyl-1H-indol-4-yl)prop-2-enoic acid]",59 nM,36 nM,–

# Second part, led by results:
IC50 (IDH1R132C),"IC50 [1, 2]",Compound,"IC50 ([1]; HT-1080, read-out: Test Example 3 IC50 (nM))"
120 nM,23 nM,"Cc1cn(C(=O)c2c(-c3c(Cl)cc(Cl)cc3Cl)noc2C(C)(C)N(C)C)c2cccc(/C=C/C(=O)O)c12 [Example 91, (2E)-3-[1-({5-[2-(Dimethylamino)propan-2-yl]-3-(2,4,6-trichlorophenyl)-1,2-oxazol-4-yl}carbonyl)-3-methyl-1H-indol-4-yl]prop-2-enoic acid]",–
140 nM,335 nM,"O=C(O)/C=C/c1cccc2c1ccn2C(=O)c1c(-c2c(Cl)cccc2Cl)noc1N1CCOCC1 [Example 136, (2E)-3-(1-{[3-(2,6-Dichlorophenyl)-5-(morpholin-4-yl)-1,2-oxazol-4-yl]carbonyl}-1H-indol-4-yl)prop-2-enoic acid]",–
188 nM,10 nM,C=CC(=O)N1CCC(C)(c2onc(-c3c(Cl)cc(Cl)cc3Cl)c2C(=O)n2ccc3c(/C=C/C(=O)O)cccc32)CC1 [Example 111],–
95 nM,253 nM,"C=CC(=O)N1CC2(CC2)N(c2onc(-c3c(F)cccc3Cl)c2C(=O)n2cc(C)c3c(/C=C/C(=O)O)cccc32)C[C@H]1C [Example 162, (2E)-3-[1-({5-[(6R)7-Acryloyl-6-methyl-4,7-diazaspiro[2.5]oct-4-yl]-3-(2-chloro-6-fluorophenyl)-1,2-oxazol-4-yl}carbonyl)-3-methyl-1H-indol-4-yl]prop-2-enoic acid]",–
116 nM,34 nM,C=CC(=O)N1CC(C)(c2onc(-c3c(Cl)cc(Cl)cc3Cl)c2C(=O)n2ccc3c(/C=C/C(=O)O)cccc32)C1 [Example 98],–
149 nM,8 nM,C=CC(=O)N1CCC(c2onc(-c3c(Cl)cc(Cl)cc3Cl)c2C(=O)n2cc(C)c3c(/C=C/C(=O)O)cccc32)(N(C)C)CC1 [Example 126],–
189 nM,32 nM,C#CC(=O)N1CC(c2onc(-c3c(Cl)cc(Cl)cc3Cl)c2C(=O)n2ccc3c(/C=C/C(=O)O)cccc32)C1 [Example 101],–
